Laboratory results from patent publication EP4592286A1, “MACROCYCLIC NITROGEN-CONTAINING CROWN ETHER COMPOUND AND USE THEREOF AS PROTEIN KINASE INHIBITOR” (Artivila Biopharma, priority 2022, dated 2024).
pEC50, pIC50: −log10 of the molar value.

Tests used:
LRRK2 = LRRK2 (Homo sapiens, UniProt Q5S007); experiment: experiment of inhibiting kinase activity, LRRK2; type: biochemical; settings: for inhibition at 0.01 µM: at 10 nM, read-out: inhibition rate LRRK2; for pIC50: kinase activity assay, Table 3
Chain of LRRK2 (Q5S007 whole entry): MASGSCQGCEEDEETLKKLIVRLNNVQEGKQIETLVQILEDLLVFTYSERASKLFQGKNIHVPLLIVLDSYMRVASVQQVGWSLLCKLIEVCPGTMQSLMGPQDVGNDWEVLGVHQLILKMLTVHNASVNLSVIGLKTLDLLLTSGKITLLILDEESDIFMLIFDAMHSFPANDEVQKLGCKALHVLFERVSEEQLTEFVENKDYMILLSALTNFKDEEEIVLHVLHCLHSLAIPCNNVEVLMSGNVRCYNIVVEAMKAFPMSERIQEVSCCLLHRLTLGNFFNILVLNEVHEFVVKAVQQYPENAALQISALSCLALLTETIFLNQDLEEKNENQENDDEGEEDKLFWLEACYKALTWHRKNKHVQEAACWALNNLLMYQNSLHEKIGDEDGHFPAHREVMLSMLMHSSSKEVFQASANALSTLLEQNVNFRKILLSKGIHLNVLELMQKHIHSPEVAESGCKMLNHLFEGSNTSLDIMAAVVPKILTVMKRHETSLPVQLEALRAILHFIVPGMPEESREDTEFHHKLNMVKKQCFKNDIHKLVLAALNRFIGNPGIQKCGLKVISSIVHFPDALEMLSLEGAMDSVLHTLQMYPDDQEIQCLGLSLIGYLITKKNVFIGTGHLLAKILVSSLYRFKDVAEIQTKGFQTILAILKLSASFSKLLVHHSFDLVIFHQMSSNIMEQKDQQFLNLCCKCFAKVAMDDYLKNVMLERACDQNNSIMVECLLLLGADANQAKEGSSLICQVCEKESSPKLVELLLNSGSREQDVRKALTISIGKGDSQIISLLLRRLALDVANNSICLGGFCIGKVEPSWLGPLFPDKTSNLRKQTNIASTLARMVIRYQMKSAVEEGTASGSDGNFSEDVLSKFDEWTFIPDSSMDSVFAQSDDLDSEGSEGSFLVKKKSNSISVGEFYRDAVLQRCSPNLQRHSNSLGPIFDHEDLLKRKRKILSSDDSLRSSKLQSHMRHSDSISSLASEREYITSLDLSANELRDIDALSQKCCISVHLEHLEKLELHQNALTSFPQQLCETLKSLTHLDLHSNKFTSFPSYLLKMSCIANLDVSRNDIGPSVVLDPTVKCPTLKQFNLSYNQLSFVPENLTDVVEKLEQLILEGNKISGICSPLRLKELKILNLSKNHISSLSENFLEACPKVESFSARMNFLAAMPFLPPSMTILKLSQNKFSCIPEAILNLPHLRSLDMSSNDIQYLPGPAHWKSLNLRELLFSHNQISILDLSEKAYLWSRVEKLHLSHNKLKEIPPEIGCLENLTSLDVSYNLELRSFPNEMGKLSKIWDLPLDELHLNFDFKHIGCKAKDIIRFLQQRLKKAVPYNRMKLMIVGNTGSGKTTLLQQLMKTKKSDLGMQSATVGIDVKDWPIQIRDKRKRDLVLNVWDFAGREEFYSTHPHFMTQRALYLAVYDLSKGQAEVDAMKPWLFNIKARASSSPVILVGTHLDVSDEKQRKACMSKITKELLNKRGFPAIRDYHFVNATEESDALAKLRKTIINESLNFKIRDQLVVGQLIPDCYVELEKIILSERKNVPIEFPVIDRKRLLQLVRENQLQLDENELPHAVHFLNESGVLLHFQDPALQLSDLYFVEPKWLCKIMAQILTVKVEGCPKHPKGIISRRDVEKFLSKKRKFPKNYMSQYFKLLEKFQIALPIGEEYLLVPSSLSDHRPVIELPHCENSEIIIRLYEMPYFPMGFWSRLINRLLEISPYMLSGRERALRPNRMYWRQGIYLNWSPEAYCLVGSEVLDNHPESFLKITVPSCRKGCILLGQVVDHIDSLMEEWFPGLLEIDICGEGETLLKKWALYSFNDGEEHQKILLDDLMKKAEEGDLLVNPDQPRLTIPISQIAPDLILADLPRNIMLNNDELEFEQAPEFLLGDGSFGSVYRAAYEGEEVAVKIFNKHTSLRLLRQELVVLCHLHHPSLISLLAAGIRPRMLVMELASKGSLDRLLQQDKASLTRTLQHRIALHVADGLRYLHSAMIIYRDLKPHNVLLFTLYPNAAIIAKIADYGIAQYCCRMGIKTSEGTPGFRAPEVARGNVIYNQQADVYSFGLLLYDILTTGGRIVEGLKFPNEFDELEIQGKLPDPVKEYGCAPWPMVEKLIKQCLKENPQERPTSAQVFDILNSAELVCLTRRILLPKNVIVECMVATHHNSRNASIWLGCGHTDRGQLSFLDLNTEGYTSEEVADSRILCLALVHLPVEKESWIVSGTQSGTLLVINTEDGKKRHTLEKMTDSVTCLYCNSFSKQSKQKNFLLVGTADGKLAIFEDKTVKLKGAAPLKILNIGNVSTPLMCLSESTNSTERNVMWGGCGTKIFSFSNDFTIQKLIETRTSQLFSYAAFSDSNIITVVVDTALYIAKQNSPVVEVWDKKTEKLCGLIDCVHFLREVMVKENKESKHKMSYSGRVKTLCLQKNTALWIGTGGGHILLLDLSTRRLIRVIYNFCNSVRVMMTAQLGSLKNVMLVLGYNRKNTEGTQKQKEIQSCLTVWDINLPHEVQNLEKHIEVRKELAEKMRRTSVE
Protocol: (§1) The inhibition rates of tested compounds on JAK1, JAK2, JAK3, TYK2, CDK7, CDK9, EGFR (T790M) and LRRK2 kinases were measured. The test concentrations of the compounds were 10 nM and 100 nM, and the detection was performed by replicate wells. Alternatively, compounds were 3-fold serial diluted from 10 µM for 10 concentrations in replicate wells.

wild-type LRRK2 = biological target: T1, wild-type LRRK2 (Homo sapiens, UniProt Q5S007); experiment: detection of phosphorylated S935 in HEK293T overexpressing wild-type LRRK2; type: cell-based; settings: pS935, HEK293T overexpressing wild-type LRRK2, 1.5 hours
T1 construct: pCMV-flag-WT LRRK2 (full-length); expressed in transfected cells; host or cells: HEK293T
T1 sequence (Q5S007 whole entry): as above
Protocol: (§2) Detection of phosphorylated S935 in HEK293T Overexpressing full-length LRRK2 (G2019S) or wild-type LRRK2
(§3) HEK293T cells was inoculated into a 6-well plate and cultured overnight. The next day, they were transiently transfected with plasmid pcDNA5-FRT/TO-FLAG LRRK2 (G2019S, full-length) or pCMV-flag-WT LRRK2 (full-length) by using Superfect transfection reagent and cultured at 37°C and 5% CO2 for 20-24 hours. The next day, cells were collected, resuspended at a density of 0.48×10^6 cells/ml, and inoculated into a 384-well plate at 50 microliters/well. Compound or DMSO solutions (volume ratio of 0.5%) were added by Tecan, and cultured at 37°C and 5% CO2 for 1.5 hours. After 1.5 hours, the supernatant was discarded, 50 microliters of 8% PFA were added in each well to fix the cells, and the cells were incubated at room temperature for 1 hour. The plate was washed with EL406 plate washer for three times, with 115 microliters of PBST per well, and the culture plate was patted to dryness. The cells were blocked with 50 microliters/well of Licor Odyssey blocking solution (0.1% Tween 20) at room temperature for 1.5 hours. The blocking solution was discarded and the culture plate was patted to dryness. 20 microliters of primary antibody (1:1000(pS935), diluted with Licor Odyssey buffer (0.1% Tween20)) was added into each well, and incubated at 4 °C overnight. The next day, the first antibody was discarded and washing was performed with PBST for five times. 20 microliters of secondary antibody (diluted with Licor Odyssey buffer (0.1% Tween20) at 1:500 and stained with DNA at 1:2000) were added into each well, and incubated at room temperature for 1 hour. The second antibody was discarded, and washing was performed for three times with PBST. The fluorescence intensity was measured by LICOR Odyssey imager Scanner, and the data was analyzed.

TYK2 = TYK2 (Homo sapiens, UniProt P29597); experiment: experiment of inhibiting kinase activity, TYK2; type: biochemical; settings: at 10 nM; read-out: inhibition rate TYK2
Chain of TYK2 (P29597 whole entry): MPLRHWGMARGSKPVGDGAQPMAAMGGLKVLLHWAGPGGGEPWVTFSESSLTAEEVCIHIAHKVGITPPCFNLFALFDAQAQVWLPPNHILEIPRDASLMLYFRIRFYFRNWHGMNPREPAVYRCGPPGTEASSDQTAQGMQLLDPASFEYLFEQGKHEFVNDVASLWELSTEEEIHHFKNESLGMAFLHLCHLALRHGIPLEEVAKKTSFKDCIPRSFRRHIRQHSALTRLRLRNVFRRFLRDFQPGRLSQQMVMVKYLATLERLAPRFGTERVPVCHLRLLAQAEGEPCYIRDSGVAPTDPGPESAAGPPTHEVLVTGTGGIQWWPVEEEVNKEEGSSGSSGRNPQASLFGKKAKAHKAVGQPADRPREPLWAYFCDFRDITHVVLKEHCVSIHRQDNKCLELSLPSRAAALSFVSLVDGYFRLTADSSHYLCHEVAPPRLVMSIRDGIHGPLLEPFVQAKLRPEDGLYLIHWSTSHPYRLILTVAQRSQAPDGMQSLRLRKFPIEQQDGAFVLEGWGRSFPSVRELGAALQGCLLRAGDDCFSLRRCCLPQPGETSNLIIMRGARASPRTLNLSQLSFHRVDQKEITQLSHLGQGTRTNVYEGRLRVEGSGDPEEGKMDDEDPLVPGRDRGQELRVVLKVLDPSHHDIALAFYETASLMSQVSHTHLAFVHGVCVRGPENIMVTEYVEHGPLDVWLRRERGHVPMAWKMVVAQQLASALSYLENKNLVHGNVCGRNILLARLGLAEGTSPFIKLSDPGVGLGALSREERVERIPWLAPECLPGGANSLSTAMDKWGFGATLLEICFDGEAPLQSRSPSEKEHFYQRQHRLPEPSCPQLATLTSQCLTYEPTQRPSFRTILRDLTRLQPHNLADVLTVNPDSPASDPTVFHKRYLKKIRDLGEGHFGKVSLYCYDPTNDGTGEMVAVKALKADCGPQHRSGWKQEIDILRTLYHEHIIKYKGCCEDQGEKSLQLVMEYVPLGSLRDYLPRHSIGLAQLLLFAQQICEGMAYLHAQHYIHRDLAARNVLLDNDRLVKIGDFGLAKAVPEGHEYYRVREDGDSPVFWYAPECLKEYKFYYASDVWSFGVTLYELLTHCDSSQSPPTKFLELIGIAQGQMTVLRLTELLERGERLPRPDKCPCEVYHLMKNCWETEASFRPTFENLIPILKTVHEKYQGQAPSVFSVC
Protocol: as §1

LRRK2 (G2019S) = biological target: T2, LRRK2 (G2019S) (Homo sapiens, UniProt Q5S007, G2019S); experiment: detection of phosphorylated S935 in HEK293T overexpressing full-length LRRK2 (G2019S); type: cell-based; settings: pS935, HEK293T overexpressing LRRK2 (G2019S), 1.5 hours
T2 construct: pcDNA5-FRT/TO-FLAG LRRK2 (G2019S, full-length); expressed in transfected cells; host or cells: HEK293T
T2 sequence (Q5S007 whole entry G2019S): as the sequence (Q5S007 whole entry) above, with G2019S counted along it
Protocol: as §2, §3

JAK2 = JAK2 (Homo sapiens, UniProt O60674); experiment: experiment of inhibiting kinase activity (Caliper mobility shift assay), JAK2; type: biochemical; settings: at 10 nM; read-out: inhibition rate JAK2
Chain of JAK2 (O60674 whole entry): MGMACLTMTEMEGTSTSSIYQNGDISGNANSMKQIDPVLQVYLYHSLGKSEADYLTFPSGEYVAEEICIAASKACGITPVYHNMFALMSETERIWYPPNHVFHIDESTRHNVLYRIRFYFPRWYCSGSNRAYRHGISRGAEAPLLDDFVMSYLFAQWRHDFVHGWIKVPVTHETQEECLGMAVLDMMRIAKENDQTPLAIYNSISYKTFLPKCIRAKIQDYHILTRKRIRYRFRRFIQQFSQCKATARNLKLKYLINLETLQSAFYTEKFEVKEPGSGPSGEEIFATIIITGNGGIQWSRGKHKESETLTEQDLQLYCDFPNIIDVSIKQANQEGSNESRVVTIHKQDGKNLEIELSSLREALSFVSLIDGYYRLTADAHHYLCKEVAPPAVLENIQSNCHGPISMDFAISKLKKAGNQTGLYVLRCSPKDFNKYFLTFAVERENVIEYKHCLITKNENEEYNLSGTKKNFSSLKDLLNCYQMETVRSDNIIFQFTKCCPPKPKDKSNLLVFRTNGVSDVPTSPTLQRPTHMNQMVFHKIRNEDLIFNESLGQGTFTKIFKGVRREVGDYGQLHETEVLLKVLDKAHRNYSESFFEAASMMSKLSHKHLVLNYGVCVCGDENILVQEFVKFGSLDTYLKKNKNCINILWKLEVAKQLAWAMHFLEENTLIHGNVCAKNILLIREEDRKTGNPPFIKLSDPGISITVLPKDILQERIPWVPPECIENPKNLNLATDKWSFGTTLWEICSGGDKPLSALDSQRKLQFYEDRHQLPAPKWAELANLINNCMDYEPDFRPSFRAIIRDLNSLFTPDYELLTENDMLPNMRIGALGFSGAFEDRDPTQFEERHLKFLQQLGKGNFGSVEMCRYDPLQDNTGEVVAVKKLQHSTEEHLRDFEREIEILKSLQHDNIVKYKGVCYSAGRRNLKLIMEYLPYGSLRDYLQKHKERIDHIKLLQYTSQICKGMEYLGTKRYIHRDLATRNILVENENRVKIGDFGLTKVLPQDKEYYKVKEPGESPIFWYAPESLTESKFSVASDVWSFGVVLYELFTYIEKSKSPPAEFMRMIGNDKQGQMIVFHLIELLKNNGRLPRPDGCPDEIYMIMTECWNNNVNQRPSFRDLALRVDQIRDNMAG
How it was run: (§4)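 Compounds were tested at 10 nM and 100 nM, or as 10-point 3-fold dilutions from 10 µM, in replicate wells. Kinase was preincubated with compound for 10 min at room temperature before ATP/substrate addition. Substrate conversion was read by mobility shift, and IC50 was fitted by a variable-slope log(inhibitor) vs response model.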

JAK3 [1] = biological target: T3, JAK3 (Homo sapiens, UniProt P52333); experiment: experiment of inhibiting kinase activity (Caliper mobility shift assay), JAK3; type: biochemical; settings: at 10 nM; read-out: inhibition rate JAK3
T3 sequence (P52333 1-1124): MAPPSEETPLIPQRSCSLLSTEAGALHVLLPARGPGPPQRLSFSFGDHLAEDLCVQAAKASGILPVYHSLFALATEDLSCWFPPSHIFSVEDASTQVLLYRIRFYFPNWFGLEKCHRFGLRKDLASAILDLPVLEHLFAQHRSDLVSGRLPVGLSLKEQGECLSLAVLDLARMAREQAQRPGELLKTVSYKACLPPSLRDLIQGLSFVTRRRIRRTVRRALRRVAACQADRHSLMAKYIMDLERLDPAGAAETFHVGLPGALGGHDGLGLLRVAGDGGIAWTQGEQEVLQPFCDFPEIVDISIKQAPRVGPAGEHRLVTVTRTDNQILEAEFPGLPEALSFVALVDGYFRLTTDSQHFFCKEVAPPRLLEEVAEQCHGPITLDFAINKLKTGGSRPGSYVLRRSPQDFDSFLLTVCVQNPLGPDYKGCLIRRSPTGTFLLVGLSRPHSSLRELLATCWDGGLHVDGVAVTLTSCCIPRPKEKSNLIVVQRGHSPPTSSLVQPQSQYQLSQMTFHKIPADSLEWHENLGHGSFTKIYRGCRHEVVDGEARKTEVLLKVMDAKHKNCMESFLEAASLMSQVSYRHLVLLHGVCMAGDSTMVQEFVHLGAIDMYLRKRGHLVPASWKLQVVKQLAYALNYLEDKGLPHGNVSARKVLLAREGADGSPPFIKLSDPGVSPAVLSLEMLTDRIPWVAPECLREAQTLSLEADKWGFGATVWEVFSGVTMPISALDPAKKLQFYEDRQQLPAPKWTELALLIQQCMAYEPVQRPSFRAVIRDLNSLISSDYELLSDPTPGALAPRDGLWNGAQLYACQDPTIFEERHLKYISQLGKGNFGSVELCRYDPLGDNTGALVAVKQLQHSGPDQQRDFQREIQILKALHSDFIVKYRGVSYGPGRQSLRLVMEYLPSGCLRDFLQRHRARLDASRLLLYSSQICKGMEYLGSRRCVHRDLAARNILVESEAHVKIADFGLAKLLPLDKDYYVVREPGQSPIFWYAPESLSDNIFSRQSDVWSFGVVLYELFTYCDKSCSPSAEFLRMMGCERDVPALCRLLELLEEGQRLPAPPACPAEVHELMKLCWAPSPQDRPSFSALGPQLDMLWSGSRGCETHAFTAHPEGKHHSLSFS
How it was run: as §4

JAK3 [2] = biological target: T4, JAK3 (Mus musculus, UniProt Q62137); experiment: JAKs cell activity test: JAK3_pSTAT5 in IL-2-induced CTLL-2 cells; type: cell-based; settings: pSTAT5, IL-2-induced CTLL-2 cells
T4 construct: endogenous in cells; host or cells: CTLL-2
T4 sequence (Q62137 1-1100): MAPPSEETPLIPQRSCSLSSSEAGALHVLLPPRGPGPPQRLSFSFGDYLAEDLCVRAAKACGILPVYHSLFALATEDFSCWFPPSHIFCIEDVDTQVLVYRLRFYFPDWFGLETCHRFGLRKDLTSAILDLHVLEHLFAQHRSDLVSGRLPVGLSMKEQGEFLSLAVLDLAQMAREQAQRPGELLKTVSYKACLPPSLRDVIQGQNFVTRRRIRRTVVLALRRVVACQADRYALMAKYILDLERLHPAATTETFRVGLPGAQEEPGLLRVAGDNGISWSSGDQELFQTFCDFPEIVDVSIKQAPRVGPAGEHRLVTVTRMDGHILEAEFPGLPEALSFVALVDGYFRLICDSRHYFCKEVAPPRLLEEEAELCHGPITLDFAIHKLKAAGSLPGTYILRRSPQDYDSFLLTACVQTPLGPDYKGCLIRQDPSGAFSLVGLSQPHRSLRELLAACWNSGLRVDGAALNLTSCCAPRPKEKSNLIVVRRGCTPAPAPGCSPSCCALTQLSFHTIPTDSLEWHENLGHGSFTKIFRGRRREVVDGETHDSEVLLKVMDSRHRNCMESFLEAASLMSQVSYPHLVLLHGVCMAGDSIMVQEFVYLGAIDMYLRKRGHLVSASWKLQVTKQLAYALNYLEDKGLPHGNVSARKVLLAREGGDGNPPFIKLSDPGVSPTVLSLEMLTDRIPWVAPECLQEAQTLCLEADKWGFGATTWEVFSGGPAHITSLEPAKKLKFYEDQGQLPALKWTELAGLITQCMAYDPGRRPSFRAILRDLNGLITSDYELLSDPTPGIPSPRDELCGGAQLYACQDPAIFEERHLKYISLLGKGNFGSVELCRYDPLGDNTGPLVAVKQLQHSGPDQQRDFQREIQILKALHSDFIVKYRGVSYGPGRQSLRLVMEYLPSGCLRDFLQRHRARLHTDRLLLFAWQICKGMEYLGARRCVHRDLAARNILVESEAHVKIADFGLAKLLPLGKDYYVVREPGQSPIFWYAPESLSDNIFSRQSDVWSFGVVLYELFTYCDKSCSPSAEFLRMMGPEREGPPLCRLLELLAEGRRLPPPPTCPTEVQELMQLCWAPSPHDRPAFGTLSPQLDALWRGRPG
Protocol: THP1 cells were collected by centrifugation, resuspended with 1×HBSS, counted and diluted to a certain cell density. They were inoculated in a 384-well plate and cultured in a saturated humidity incubator with 37 °C and 5% CO2. The compound (DMSO final volume of 0.3%) was added to THP1 cells (10 doses in duplicates) and cultured in a saturated humidity incubator with 37 °C and 5% CO2. hIL-4 was added to stimulate cells and cultured in a saturated humidity incubator with 37 °C and 5% CO2. The lysis solution was added and incubated at room temperature. According to the instructions of AlphaLISA SureFire Ultra p-STAT6 detection kit, the lysis solution was transferred to pSTAT6 detection system, and the ALPHA signal was read by PE Envision microplate reader. The inhibition rate Inh%=((DMSO-sample)/(DMSO-background))×100 was calculated. IC50 was obtained by fitting with GraphPad Prism non-linear regression equation, and y=Bottom+(Top-Bottom)/(1+10^((LogIC50-x)×hillslope)), where x was the concentration of the compound and y was the inhibition rate.
JAK2_pSTAT5 was tesed in IL-3-induced BAF3 cells according to the above steps, and JAK3_pSTAT5 was tested in IL-2-induced CTLL-2 cells (without serum stimulation) according to the above steps.

| inhibition at 0.01 µM (LRRK2) [%] | pIC50 (LRRK2) | pEC50 (wild-type LRRK2) | inhibition at 0.01 µM (TYK2) [%] | pEC50 (LRRK2 (G2019S)) | inhibition at 0.01 µM (JAK2) [%] | inhibition at 0.01 µM (JAK3 [1]) [%] | pEC50 (JAK3 [2]) | Compound |
| --- | --- | --- | --- | --- | --- | --- | --- | --- |
| 40 to 79 | > 7.30 | 5.30 to 6.00 |  |  |  |  |  | CN1CCOc2ccc(Nc3nc(NCCS(C)(=O)=O)c4cc[nH]c4n3)cc2OCC1 [Example 84, N^2-(4-methyl-3,4,5,6-tetrahydro-2H-benzo[b][1,4,7]dioxazolin-9-yl)-N^4-(2-(methylsulfonyl)ethyl)-7H-pyrrolo[2,3-d]pyrimidin-2,4-diamine] |
| > 80 | > 7.30 | > 6.30 | 40 to 79 | > 6.30 | 40 to 79 |  |  | CC(C)S(=O)(=O)c1ccccc1Nc1nc(Nc2ccc3c(c2)OCCN(C)CCO3)ncc1C(F)(F)F [Example 82, N^4-(2-(isopropylsulfonyl)phenyl)-N^2-(4-methyl-3,4,5,6-tetrahydro-2H-benzo[b][1,4, 7]dioxazolin-9-yl)-5-(trifluoromethyl)pyrimidin-2,4-diamine] |
|  |  |  |  |  | 25 to 39 | > 80 | 6.30 to 7.30 | C=CC(=O)Nc1cccc(Nc2nc(Nc3ccc4c(c3)OCCN(C)CCO4)ncc2Cl)c1 [Example 55, N-(3-((5-chloro-2-((4-methyl-3,4,5,6-tetrahydro-2H-benzo[b][1,4,7]dioxazolin-9-yl)amino)pyrimidin-4-yl)amino)phenyl)acrylamide] |
